Earlier results on 111 molecules are cited in US6761903B2, “Clear oil-containing pharmaceutical compositions containing a therapeutic agent” (Lipocine, Inc., priority 1999, dated 2004).

Where only a bound is given, the exact number is not on record here.

The conditions of one data set: as reported by the manufacturer of the commercial product, rough average or inventors' judgment.
For the molecule `CCCCCCCCCCCCOS(=O)(=O)[O-].[Na+]` [Sodium lauryl sulfate (dodecyl), Sodium lauryl sulfate], the HLB is on record as 40. With `CCCCCCCC/C=C\CCCCCCCC(=O)[O-].[Na+]` [Sodium oleate], the HLB is 18. As to Caprylic/capric glycerides, the HLB is listed as below 10.

Take Dicaprin [Dicaprin (C10)]: the HLB is below 10. With Dicaproin [Dicaproin (C6)], the HLB is below 10. With Dielaidin [Dielaidin (C18:1)], the HLB is given as below 10. Dilinolein [Dilinolein (C18:2)]: the HLB was below 10. Turning to Dimyristin [Dimyristin (C14)], the HLB is on record as below 10.

In the case of Dioctanoin [Dioctanoin (C8)], the HLB was below 10. With Dipalmitin [Dipalmitin (C16)], the HLB is below 10.

Dipalmitolein [Dipalmitolein (C16:1)]: the HLB is listed as below 10. As to Distearin, the HLB is given as below 10. Glycerol monooleate/linoleate: the HLB is 3-4. On to “Glyceryl citrate/lactate/oleate/linoleate”, for which the HLB is below 10. “Glyceryl dilaurate [Glyceryl dilaurate (C12)]”: the HLB was 3-4.

On to Glyceryl dioleate, for which the HLB is recorded as 3-4.

As for Glyceryl mono-, dioleate, the HLB is given as below 10. With Glyceryl palmitic/stearic, the HLB is below 10. PEG 4-100 monolaurate: the HLB is listed as above 9. For PEG 4-100 monooleate, the HLB is above 8. Regarding PEG 4-100 monostearate, the HLB is on record as above 6.

In the case of PEG 100,200,300 monolaurate, the HLB is above 10. As to PEG 100,200,300 monooleate, the HLB is recorded as above 10.

For PEG 400 dioleate, the HLB is above 10. For the molecule PEG 400 distearate, the HLB was above 10. For PEG 400-1000 monostearate, the HLB is listed as above 10. As for PEG-2 oleate, the HLB is on record as 4.5.

Regarding PEG-2 stearate, the HLB was 4. Turning to PEG-3 oleyl ether, the HLB was below 10.

Take PEG-4 dilaurate: the HLB is recorded as 7. Turning to PEG-4 dioleate, the HLB was 6. On to PEG-4 distearate, for which the HLB was 5. PEG-4 oleate: the HLB is 8.3. Consider PEG-4 stearate, for which the HLB is 6.5.

For PEG-5 oleate, the HLB is on record as 9.5.

As for PEG-5 oleyl ether, the HLB was below 10. In the case of PEG-5 soya sterol, the HLB is on record as below 10. In the case of PEG-5 stearate, the HLB is 9.5. Take PEG-6 dilaurate: the HLB is 9.8.

Take PEG-6 dioleate: the HLB is listed as 7.2.

Take PEG-6 distearate: the HLB is 6.5.

Consider PEG-6 sorbitan monostearate, for which the HLB is 11. On to PEG-6 stearate, for which the HLB is on record as 9.7.

With PEG-7 oleate, the HLB is 10.4. For PEG-8 dioleate, the HLB is given as 8.8. For the molecule PEG-9 oleate, the HLB is reported as above 10.

In the case of PEG-9 stearate, the HLB is listed as above 10. Turning to PEG-10 dipalmitate, the HLB is above 10. Turning to PEG-10 soya sterol, the HLB was below 10. As to PEG-12 dilaurate, the HLB was 11.7. PEG-12 dioleate: the HLB is listed as 10. For the molecule PEG-12 distearate, the HLB is reported as 10.7. Take PEG-12 oleate: the HLB was 14. Regarding PEG-12 ricinoleate, the HLB is above 10. Regarding PEG-12 stearate, the HLB is 14. For the molecule PEG-15 stearate, the HLB is on record as 14. As for PEG-20 glyceryl oleate, the HLB is above 10. As for PEG-20 soya sterol, the HLB was below 10. In the case of PEG-24 cholesterol ether, the HLB is listed as above 10. Take PEG-25 phyto sterol: the HLB is above 10. Regarding PEG-30 cholestanol, the HLB is above 10. In the case of PEG-30 glyceryl oleate, the HLB was above 10. For PEG-30 soya sterol, the HLB is given as above 10. For the molecule PEG-30 stearate, the HLB is given as above 10.

With PEG-40 oleate, the HLB is reported as 17.4. As for PEG-40 stearate, the HLB is recorded as above 10. In the case of PEG-50 stearate, the HLB is given as above 10. PEG-100 oleate: the HLB is 18.8.

Turning to PEG-100 stearate, the HLB is 19. For PEG-200 oleate, the HLB is reported as above 10. In the case of PEG-400 dioleate, the HLB is recorded as above 10. Take PEG-400 distearate: the HLB is above 10. For the molecule PEG-400 oleate, the HLB is listed as above 10. PEG-600 oleate: the HLB was above 10.

Consider “Pentaerythrityl tetracaprylate/tetracaprate”, for which the HLB is recorded as below 10. As for Pentaerythrityl tetraisostearate, the HLB was below 10. Consider Phytosterol, for which the HLB was below 10. Regarding Polyglyceryl-2 dioleate, the HLB is on record as 7. Regarding Polyglyceryl-2 isostearate, the HLB was 5-7.

On to Polyglyceryl-2 oleate, for which the HLB is 5-7.

For the molecule Polyglyceryl-2 stearate, the HLB is 5-7.

Consider Polyglyceryl-3 dioleate, for which the HLB is reported as below 10.

As to Polyglyceryl-3 distearate, the HLB is on record as below 10. With Polyglyceryl-3 oleate, the HLB was 6.5. With Polyglyceryl-4 oleate, the HLB is 5-7.

In the case of Polyglyceryl-4 pentaoleate, the HLB was below 10.

On to Polyglyceryl-4 stearate, for which the HLB is reported as 5-6.

Regarding Polyglyceryl-6 oleate, the HLB was 9.

Turning to Polyglyceryl-6 pentaoleate, the HLB is recorded as below 10.

With Polyglyceryl-6 ricinoleate, the HLB is above 8. For Polyglyceryl-10 decaisostearate, the HLB is below 10. In the case of Polyglyceryl-10 mono, dioleate, the HLB is given as 11.

Take Polyglyceryl-10 oleate: the HLB is recorded as 14.

In the case of Polyglyceryl-10 pentaoleate, the HLB is 3.5. Polyglyceryl-10 septaoleate: the HLB was 3. On to Polyglyceryl-10 tetraoleate, for which the HLB was 6.2.

For the molecule Polyglyceryl-10 trioleate, the HLB is listed as 7. Turning to Polyglyceryl-101 decaoleate, the HLB is recorded as 3.5. In the case of Propylene glycol dicaprylate/dicaprate, the HLB is above 6.

On to Sorbitan monoisostearate, for which the HLB is given as 4.7. For Sorbitan monooleate, the HLB is listed as 4.3.

Turning to Sorbitan monopalmitate, the HLB is reported as 6.7. As to Sorbitan monostearate, the HLB is on record as 4.7.

In the case of Sorbitan sesquistearate, the HLB is 4.2. With Sorbitan trioleate, the HLB is 4.3. Regarding Sucrose dipalmitate, the HLB was 7.4. Consider Sucrose distearate, for which the HLB is 3. Sucrose monopalmitate: the HLB was above 10.

Details in a further data set: not given
As for `CCCCCCCC/C=C\CCCCCCCC(=O)OCC(O)CO` (stereo not drawn) [glycerol monooleate], the solubility in water result is reported as “practically water insoluble”.

Staying with this data set, now noted: water having a pH at about 7 and below.
`C[C@H](CCC(=O)O)[C@H]1CC[C@H]2[C@@H]3[C@H](O)C[C@@H]4C[C@H](O)CC[C@]4(C)[C@H]3CC[C@]12C` [CDCA, chenodeoxycholic acid]: the solubility in water entry is “practically insoluble”. As to `C[C@H](CCC(=O)O)[C@H]1CC[C@H]2[C@@H]3[C@@H](O)C[C@@H]4C[C@H](O)CC[C@]4(C)[C@H]3CC[C@]12C` [UDCA, ursodeoxycholic acid], the solubility in water entry is given as “practically insoluble”.
